From US20150111262A1, “METHODS AND MATERIALS FOR PRODUCING FIVE CARBON BUILDING BLOCKS FROM PROLINE” (INVISTA North America S.á r.l., priority 2013, published 2015)
Each block holds one compound with its values, some of them ahead of it.

Legend:
[1] = test system: ω-transaminase of SEQ ID NO: 10; assay: ω-transaminase activity, 5-aminopentanol to 5-oxopentanol; format: biochemical, Rhodobacter sphaeroides
Procedure: (§1) A nucleotide sequence encoding an N-terminal His-tag was added to the Chromobacterium violaceum, Pseudomonas aeruginosa, Pseudomonas syringae, Rhodobacter sphaeroides, Escherichia coli and Vibrio Fluvialis genes encoding the ω-transaminases of SEQ ID NOs: 7-12 respectively (see FIG. 7) such that N-terminal HIS tagged ω-transaminases could be produced. The modified genes were cloned into a pET21a expression vector under the T7 promoter. Each expression vector was transformed into a BL21[DE3] E. coli host. Each resulting recombinant E. coli strain were cultivated at 37° C. in a 250 mL shake flask culture containing 50 mL LB media and antibiotic selection pressure, with shaking at 230 rpm. Each culture was induced overnight at 16° C. using 1 mM IPTG.
(§2) The pellet from each induced shake flask culture was harvested via centrifugation. Each pellet was resuspended and lysed via sonication. The cell debris was separated from the supernatant via centrifugation and the cell free extract was used immediately in enzyme activity assays.
(§3) Enzyme activity assays in the reverse direction (i.e., 5-aminopentanol to 5-oxopentanol) were performed in a buffer composed of a final concentration of 50 mM HEPES buffer (pH=7.5), 10 mM 5-aminopentanol, 10 mM pyruvate, and 100 μM pyridoxyl 5′ phosphate. […] The formation of L-alanine was quantified via RP-HPLC.

[2] = test system: ω-transaminase of SEQ ID NO: 9; assay: as above; format: biochemical, Pseudomonas syringae
Procedure: as §1, §2, §3

[3] = target: T1, ω-transaminase of SEQ ID NO: 11 (Escherichia coli, UniProt P42588); assay: as above; format: biochemical
T1 construct: His-tag (N); made in house; host or cells: E. coli BL21[DE3], pET21a; cell free extract used
Procedure: as §1, §2, §3

[4] = test system: ω-transaminase of SEQ ID NO: 7; assay: as above; format: biochemical, Chromobacterium violaceum
Procedure: as §1, §2, §3

[5] = test system: ω-transaminase of SEQ ID NO: 12; assay: as above; format: biochemical, Vibrio Fluvialis
Procedure: as §1, §2, §3

[6] = test system: ω-transaminase of SEQ ID NO: 8; assay: as above; format: biochemical, Pseudomonas aeruginosa
Procedure: as §1, §2, §3

gene product of ygjG = gene product of ygjG (Escherichia coli, UniProt P42588); conditions: Samsonova et al., BMC Microbiology, 2003; cited from earlier work
[7] = test system: ω-transaminase of SEQ ID NO: 9; assay: ω-transaminase activity, glutarate semialdehyde to 5-aminopentanoate (reverse direction); format: biochemical, Pseudomonas syringae; conditions: SEQ ID 9
Procedure: (§4) A sequence encoding an N-terminal His-tag was added to the genes from Chromobacterium violaceum and Pseudomonas syringae encoding the ω-transaminases of SEQ ID NOs: 7 and 9, respectively (see FIG. 7) such that N-terminal HIS tagged ω-transaminases could be produced. Each of the resulting modified genes was cloned into a pET21a expression vector under control of the T7 promoter and each expression vector was transformed into a BL21[DE3] E. coli host. The resulting recombinant E. coli strains were cultivated at 37° C. in a 250 mL shake flask culture containing 50 mL LB media and antibiotic selection pressure, with shaking at 230 rpm. Each culture was induced overnight at 16° C. using 1 mM IPTG.
as §2
Enzyme activity in the reverse direction (i.e., glutarate semialdehyde to 5-aminopentanoate) were performed in a buffer composed of a final concentration of 50 mM HEPES buffer (pH=7.5), 10 mM glutarate semialdehyde, 10 mM L-alanine and 100 μM pyridoxyl 5′ phosphate. […] The formation of pyruvate was quantified via RP-HPLC.

[8] = test system: ω-transaminase of SEQ ID NO: 7; assay: ω-transaminase activity, 5-aminopentanoate to glutarate semialdehyde (forward direction); format: biochemical, Chromobacterium violaceum
Procedure: as §4, §2
Enzyme activity assays in the forward direction (i.e., 5-aminopentanoate to glutarate semialdehyde) were performed in a buffer composed of a final concentration of 50 mM HEPES buffer (pH=7.5), 10 mM 5-aminopentanoate, 10 mM pyruvate and 100 μM pyridoxyl 5′ phosphate. […] The formation of L-alanine from pyruvate was quantified via RP-HPLC.

[9] = test system: ω-transaminase of SEQ ID NO: 7; assay: ω-transaminase activity, cadaverine to 5-aminopentanal; format: biochemical, Chromobacterium violaceum
Procedure: as §1, with “A” for “A nucleotide”, “syringae and” for “syringae, Rhodobacter sphaeroides,”, “coli” for “coli and Vibrio Fluvialis”, “7, 8, 9 and 11,” for “7-12”
as §2
as §3, with “cadaverine” for “5-aminopentanol”, “5-aminopentanal)” for “5-oxopentanol)”, “cadaverine,” for “5-aminopentanol,”

[10] = test system: ω-transaminase of SEQ ID NO: 8; assay: as above; format: biochemical, Pseudomonas aeruginosa
Procedure: as §1, with “A” for “A nucleotide”, “syringae and” for “syringae, Rhodobacter sphaeroides,”, “coli” for “coli and Vibrio Fluvialis”, “7, 8, 9 and 11,” for “7-12”
as §2
as §3, with “cadaverine” for “5-aminopentanol”, “5-aminopentanal)” for “5-oxopentanol)”, “cadaverine,” for “5-aminopentanol,”

[11] = target: T1, ω-transaminase of SEQ ID NO: 11; assay: as above; format: biochemical
Procedure: as §1, with “A” for “A nucleotide”, “syringae and” for “syringae, Rhodobacter sphaeroides,”, “coli” for “coli and Vibrio Fluvialis”, “7, 8, 9 and 11,” for “7-12”
as §2
as §3, with “cadaverine” for “5-aminopentanol”, “5-aminopentanal)” for “5-oxopentanol)”, “cadaverine,” for “5-aminopentanol,”

[12] = test system: ω-transaminase of SEQ ID NO: 9; assay: as above; format: biochemical, Pseudomonas syringae
Procedure: as §1, with “A” for “A nucleotide”, “syringae and” for “syringae, Rhodobacter sphaeroides,”, “coli” for “coli and Vibrio Fluvialis”, “7, 8, 9 and 11,” for “7-12”
as §2
as §3, with “cadaverine” for “5-aminopentanol”, “5-aminopentanal)” for “5-oxopentanol)”, “cadaverine,” for “5-aminopentanol,”

gene product of ygjG, sequence (P42588 whole entry): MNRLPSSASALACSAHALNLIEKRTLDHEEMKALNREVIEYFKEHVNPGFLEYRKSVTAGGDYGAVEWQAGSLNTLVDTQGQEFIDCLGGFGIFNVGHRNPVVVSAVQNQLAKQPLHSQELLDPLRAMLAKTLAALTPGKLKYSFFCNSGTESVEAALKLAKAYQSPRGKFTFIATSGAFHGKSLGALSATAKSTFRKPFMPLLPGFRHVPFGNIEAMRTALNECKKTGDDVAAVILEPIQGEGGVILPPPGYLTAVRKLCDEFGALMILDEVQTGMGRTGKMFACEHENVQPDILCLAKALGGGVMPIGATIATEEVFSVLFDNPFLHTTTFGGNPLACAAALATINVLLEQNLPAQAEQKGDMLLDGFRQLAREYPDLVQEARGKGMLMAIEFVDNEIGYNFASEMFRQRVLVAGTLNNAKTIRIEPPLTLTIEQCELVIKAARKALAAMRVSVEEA
T1 sequence (P42588 whole entry): as above

SMILES: NCCCCCO [5-aminopentanol]
acceptance as substrate (conversion of pyruvate to L-alanine) vs empty vector control ([1]; SEQ ID NO 10, 10 mM 5-aminopentanol, 10 mM pyruvate, pH 7.5, 25° C., 4 h, FIG. 13): accepted 5-aminopentanol as substrate
acceptance as substrate (conversion of pyruvate to L-alanine) vs empty vector control ([2]; SEQ ID NO 9, 10 mM 5-aminopentanol, 10 mM pyruvate, pH 7.5, 25° C., 4 h, FIG. 13): accepted 5-aminopentanol as substrate
acceptance as substrate (conversion of pyruvate to L-alanine) vs empty vector control ([3]; SEQ ID NO 11, 10 mM 5-aminopentanol, 10 mM pyruvate, pH 7.5, 25° C., 4 h, FIG. 13): accepted 5-aminopentanol as substrate
acceptance as substrate (conversion of pyruvate to L-alanine) vs empty vector control ([4]; SEQ ID NO 7, 10 mM 5-aminopentanol, 10 mM pyruvate, pH 7.5, 25° C., 4 h, FIG. 13): accepted 5-aminopentanol as substrate
acceptance as substrate (conversion of pyruvate to L-alanine) vs empty vector control ([5]; SEQ ID NO 12, 10 mM 5-aminopentanol, 10 mM pyruvate, pH 7.5, 25° C., 4 h, FIG. 13): accepted 5-aminopentanol as substrate
acceptance as substrate (conversion of pyruvate to L-alanine) vs empty vector control ([6]; SEQ ID NO 8, 10 mM 5-aminopentanol, 10 mM pyruvate, pH 7.5, 25° C., 4 h, FIG. 13): accepted 5-aminopentanol as substrate

SMILES: O=CCCCCO [5-oxopentanol]
acceptance as substrate, forming 5-aminopentanol, concluded from reversibility of the ω-transaminase activity ([1]; SEQ ID 10): accept 5-oxopentanol as substrate
acceptance as substrate, forming 5-aminopentanol, concluded from reversibility of the ω-transaminase activity ([2]; SEQ ID 9): accept 5-oxopentanol as substrate
acceptance as substrate, forming 5-aminopentanol, concluded from reversibility of the ω-transaminase activity ([3]; SEQ ID 11): accept 5-oxopentanol as substrate
acceptance as substrate, forming 5-aminopentanol, concluded from reversibility of the ω-transaminase activity ([4]; SEQ ID 7): accept 5-oxopentanol as substrate
acceptance as substrate, forming 5-aminopentanol, concluded from reversibility of the ω-transaminase activity ([5]; SEQ ID 12): accept 5-oxopentanol as substrate
acceptance as substrate, forming 5-aminopentanol, concluded from reversibility of the ω-transaminase activity ([6]; SEQ ID 8): accept 5-oxopentanol as substrate

SMILES: NCCCCNCCCN [spermidine]
acceptance as diamine substrate (gene product of ygjG): accepts

acceptance as substrate, forming 5-oxopentanoate, concluded from reversibility of the ω-transaminase activity [7]: accept 5-aminopentanoate as substrate
acceptance as substrate, forming 5-oxopentanoate, concluded from reversibility of the ω-transaminase activity ([8]; SEQ ID 7): accept 5-aminopentanoate as substrate
acceptance as substrate (conversion of pyruvate to L-alanine) vs empty vector control ([8]; cell free extract, 10 mM 5-aminopentanoate, 10 mM pyruvate, pH 7.5, 25° C., 4 h, RP-HPLC, FIG. 8): accepted 5-aminopentanoate as substrate
SMILES: NCCCCC(=O)O [5-aminopentanoate]

SMILES: NCCCCCN [cadaverine]
acceptance as substrate (conversion of pyruvate to L-alanine) vs empty vector control ([9]; SEQ ID NO 7, 10 mM cadaverine, 10 mM pyruvate, pH 7.5, 25° C., 4 h, FIG. 14): accepted cadaverine as substrate
acceptance as substrate (conversion of pyruvate to L-alanine) vs empty vector control ([10]; SEQ ID NO 8, 10 mM cadaverine, 10 mM pyruvate, pH 7.5, 25° C., 4 h, FIG. 14): accepted cadaverine as substrate
acceptance as substrate (conversion of pyruvate to L-alanine) vs empty vector control ([11]; SEQ ID NO 11, 10 mM cadaverine, 10 mM pyruvate, pH 7.5, 25° C., 4 h, FIG. 14): accepted cadaverine as substrate
acceptance as diamine substrate (gene product of ygjG): accepts
acceptance as substrate (conversion of pyruvate to L-alanine) vs empty vector control ([12]; SEQ ID NO 9, 10 mM cadaverine, 10 mM pyruvate, pH 7.5, 25° C., 4 h, FIG. 14): accepted cadaverine as substrate

SMILES: NCCCCN [putrescine]
acceptance as diamine substrate (gene product of ygjG): accepts

SMILES: NCCCCC=O [5-aminopentanal]
acceptance as substrate, forming cadaverine, concluded from reversibility of the ω-transaminase activity ([9]; SEQ ID 7): accept 5-aminopentanal as substrate
acceptance as substrate, forming cadaverine, concluded from reversibility of the ω-transaminase activity ([10]; SEQ ID 8): accept 5-aminopentanal as substrate
acceptance as substrate, forming cadaverine, concluded from reversibility of the ω-transaminase activity ([11]; SEQ ID 11): accept 5-aminopentanal as substrate
acceptance as substrate, forming cadaverine, concluded from reversibility of the ω-transaminase activity ([12]; SEQ ID 9): accept 5-aminopentanal as substrate
